Where “and” joins values, the source holds several entries; their conditions need not be identical. Equal values may be shown once. Where a name gives a salt, the structure may show the parent alone. Read-outs that look alike come from different tables or passages of the source.
Columns and labels:
[1] = Gravimetric solubility in deionized water at 23 degrees C; type: physicochemical; conditions: listed as calcium salt of fluvastatin
Procedure: Solubility measurements of the sodium salt and of the calcium salt of fluvastatin were acquired in water at 23 degrees C. Solubility was measured gravimetrically in deionized water.

[2] = 26 week stability of pravastatin salts suspended in E463808 omega-3 oil (HPLC); type: physicochemical
Procedure: Several salts of pravastatin were suspended in E463808 omega-3 oil and placed in either capped glass vials or sealed gelatin capsules. […] were used at 25 degrees C. while glass vials were used at 25, 40, and 60 degrees C. The suspensions of salt in oil were measured periodically for 26 weeks. HPLC was used to measure degradation of the pravastatin salts.

[3] = Pharmacokinetic two-way cross-over study in fasted beagle dogs (plasma pravastatin, LC/MS); type: in vivo
Procedure: A two-way cross-over experiment was completed with six fasted beagle dogs to compare the pharmacokinetic parameters of pravastatin calcium salt with pravastatin sodium salt. The pravastatin sodium salt was acquired from PRAVACHOL® tablets. The pravastatin calcium salt was acquired via the method described in Example 1. The pravastatin calcium salt dosage form administered to the dogs consisted of 11.0 mg pravastatin calcium salt (equivalent to 10 mg pravastatin acid) and 744 mg Ropufa 75 ethyl esters of omega-3 fatty acids in a soft gelatin capsule shell. […] The mean dose of pravastatin free acid administered as PRAVACHOL® was 0.85 mg/kg and the mean dose of pravastatin free acid administered as pravastatin calcium salt was 0.95 mg/kg. Following administration, plasma samples were collected pre-dose and then at 0.25, 0.5, 1, 1.5, 2, 3, 4, 6, 8, 12, and 24 hours post-dose. Plasma samples were analyzed for pravastatin concentration using an LC/MS method.

[4] = Aqueous solubility via UV absorption; conditions: water, via UV detection, 20-25 degrees C.
Procedure: The term “aqueous solubility” refers to the solubility as measured in deionized water at about 25 degrees C., unless otherwise specified.
A calibration curve was constructed by preparing known concentrations of API in absolute ethanol in volumetric flasks. At each concentration, 200 microliters of the solution was transferred into a 96-well clear bottom UV plate. The sample absorbance was measured at 280 nm (unless otherwise noted) in a UV spectrophotometer.
To measure the API concentration in the sample, a small aliquot was taken and diluted (typically 2000-fold) with absolute ethanol in a volumetric flask to a final approximate concentration of less than 100 micrograms/mL. The absorbance at 280 nm (unless otherwise noted) is measured and the solubility is calculated based on the calibration curve.

[5] = Dynamic Vapor Sorption (DVS) moisture sorption isotherm; type: physicochemical
Description: Dynamic Vapor Sorption (DVS) data were also acquired on both the pravastatin calcium salt and the pravastatin sodium salt. […] This is consistent with an amorphous compound. Hysteresis is observed in the desorption cycle. […] Significant hysteresis is observed in the desorption cycle.

[6] = type: physicochemical
Procedure: Several salts of pravastatin were suspended in 87:13 E681010:ethanol mixtures and placed in capped glass vials. Each suspension of pravastatin calcium, pravastatin magnesium, pravastatin sodium, or pravastatin zinc in 87:13 E681010:ethanol was measured periodically for 12 weeks. HPLC was used to measure degradation of the pravastatin salts.

[7] = suspension in E463808, capped glass vials, 8 weeks
[8] = beagle, dog, plasma, po, 0.95 mg/kg, Mean of six fasted beagle dogs, mean dose as free acid 0.95 mg/kg (calcium salt softgel), 0.85 mg/kg (PRAVACHOL)
[9] = individual dogs, oral, fasted, mean dose as free acid 0.95 mg/kg (calcium salt softgel), 0.85 mg/kg (PRAVACHOL), calcium salt

**Q.** Which aqueous solubility [1] does the source give for CC(C)n1c(/C=C/C(O)CC(O)CC(=O)O)c(-c2ccc(F)cc2)c2ccccc21 (centres unmarked) [fluvastatin calcium salt] here?
**A.** less than or equal to 0.275 mg/mL

**Q.** What does the source list for CC[C@H](C)C(=O)O[C@H]1C[C@H](O)C=C2C=C[C@H](C)[C@H](CC[C@@H](O)C[C@@H](O)CC(=O)O)[C@H]21 [pravastatin calcium salt]?
**A.** stability in suspension of omega-3 oil relative to other pravastatin salts (sodium, potassium) ([2]; summary statement referring to the Exemplification): higher stability; degradation at 60 degrees C. vs potassium salt at 40 degrees C. [2, 7]: significantly less degradation; degradation at 60 degrees C. vs sodium salt at 40 degrees C. [2, 7]: similar; degradation vs sodium or potassium salt at a given temperature ([2]; suspension in E463808, capped glass vials, 40 and 60 degrees C.): degrade substantially less; degradation compared with all salts in gelcap or vial ([2]; suspension in E463808, vial, 25 degrees C., 26 weeks): degrade the least; bioavailability ([3]; beagle, dog, plasma, po, 0.95 mg/kg, Mean of six dogs, relative to PRAVACHOL AUCinf, dose-normalized): 121%; AUC(0-inf) [3, 8]: 441 ng·h/mL; AUC(0-t) [3, 8]: 432 ng·h/mL; half-life [3, 8]: 2.35 h; Cmax ([3]; beagle, dog, plasma, po, 0.95 mg/kg, Mean of six fasted beagle dogs, oral, mean dose as free acid 0.95 mg/kg (calcium salt softgel), 0.85 mg/kg (PRAVACHOL), read-out: Cmax): 141 ng/mL; Tmax ([3]; beagle, dog, plasma, po, 0.95 mg/kg, Mean of six fasted beagle dogs, oral, mean dose as free acid 0.95 mg/kg (calcium salt softgel), 0.85 mg/kg (PRAVACHOL), read-out: Tmax): 0.71 h; AUC(0-t) ([3]; beagle, dog, plasma, po, 0.95 mg/kg, individual dogs, fasted, mean dose as free acid 0.95 mg/kg (calcium salt in Ropufa 75 omega-3 ethyl esters softgel), 0.85 mg/kg (PRAVACHOL)): 488 ng·h/mL; AUC(0-inf) ([3]; beagle, dog, plasma, po, 0.95 mg/kg, individual dogs, fasted, mean dose as free acid 0.95 mg/kg (calcium salt softgel), 0.85 mg/kg (PRAVACHOL)): 494 ng·h/mL; AUC values compared with the PRAVACHOL tablet ([3]; fasted beagle dogs, oral): slightly higher; Cmax values compared with the PRAVACHOL tablet ([3]; fasted beagle dogs, oral): slightly higher; Tmax values compared between the formulations ([3]; fasted beagle dogs, oral): comparable; AUC0–t ([3]; individual dogs, oral, fasted, mean dose as free acid 0.95 mg/kg (calcium salt in Ropufa 75 omega-3 ethyl esters softgel), 0.85 mg/kg (PRAVACHOL), calcium salt): 438.55 ng·h/mL and 505.30 ng·h/mL and 380.68 ng·h/mL and 512.94 ng·h/mL and 264.11 ng·h/mL; AUCinf [3, 9]: 453.69 ng·h/mL and 515.14 ng·h/mL and 396.20 ng·h/mL and 518.11 ng·h/mL and 268.01 ng·h/mL; Cmax [3, 9]: 182 ng/mL and 131 ng/mL and 166 ng/mL and 99.0 ng/mL and 87.2 ng/mL; Tmax [3, 9]: 1 h and 0.5 h and 0.25 h; t1/2 [3, 9]: 1.67 h and 2.5 h and 1.89 h and 2.76 h and 3.44 h and 1.85 h; aqueous solubility ([4]; listed as calcium salt of pravastatin, calcium salt): 17 to 20 mg/mL

**Q.** Which aqueous solubility [4] does the source give for CCC(C)C(=O)OC1CC(O)C=C2C=CC(C)C(CCC(O)CC(O)CC(=O)[O-])C21.CCC(C)C(=O)OC1CC(O)C=C2C=CC(C)C(CCC(O)CC(O)CC(=O)[O-])C21.[Mg+2] (centres unmarked) [pravastatin magnesium salt (habit A), pravastatin magnesium salt] here?
**A.** 14.22 mg/mL

**Q.** Which aqueous solubility [4] does the source give for CCC(C)C(=O)OC1CC(O)C=C2C=CC(C)C(CCC(O)CC(O)CC(=O)[O-])C21.CCC(C)C(=O)OC1CC(O)C=C2C=CC(C)C(CCC(O)CC(O)CC(=O)[O-])C21.[Mg+2] (centres unmarked) [pravastatin magnesium salt (habit B), pravastatin magnesium salt] here?
**A.** 16.12 mg/mL

**Q.** Which “hygroscopicity compared with the calcium salt” value ([5]; DVS) does the source give for CC[C@H](C)C(=O)O[C@H]1C[C@H](O)C=C2C=C[C@H](C)[C@H](CC[C@@H](O)C[C@@H](O)CC(=O)O)[C@H]21 [pravastatin sodium salt] here?
**A.** greater hygroscopicity

**Q.** And the “relative humidity above which adsorbed water increased significantly” value ([5]; DVS sorp-desorp cycle)?
**A.** about 54 percent RH

**Q.** What about the aqueous solubility ([4]; listed as sodium salt of pravastatin, sodium salt) of the same molecule?
**A.** greater than 300 mg/mL

**Q.** Which “degradation to the lactone (percent lactone)” value [6] does the source give for CC[C@H](C)C(=O)O[C@H]1C[C@H](O)C=C2C=C[C@H](C)[C@H](CC[C@@H](O)C[C@@H](O)CC(=O)O)[C@H]21.[Zn] [pravastatin zinc salt] here?
**A.** about 3%

**Q.** What about the “stability in suspension of omega-3 oil and an alcohol relative to other pravastatin salts” value [6] of the same molecule?
**A.** higher stability

**Q.** What about the “moisture sorption behaviour (DVS isotherm)” value ([5]; 25 degrees C.) of the same molecule?
**A.** gradual increase in moisture sorption

**Q.** With pravastatin magnesium salt as the molecule, how does the aqueous solubility [4] read?
**A.** 17.24 mg/mL
